Source: the OPERA property sets (Mansouri et al. 2018)
Converted amounts (≈) assume the structure as drawn.

Settings: not given
Work on CCOc1ccc2nc(S(N)(=O)=O)sc2c1 yielded a solubility of 0.155 mM (≈ 0.04 mg/mL).
With O=C(O)c1ccc(Br)cc1 the solubility was 0.298 mM (≈ 0.06 mg/mL).
With CCOc1ccc(C(=O)OCCN(CC)CC)cc1 the solubility was 1.93 mM (≈ 0.512 mg/mL).
With O=C1C=CC(=C(c2ccc(O)cc2)c2ccc(O)cc2)C=C1 the solubility was 4.13 mM (≈ 1.2 mg/mL).
With CCC[C@H]1CCCCN1 the solubility was 141 mM (≈ 18 mg/mL).
With O=C(O)c1c(Cl)cccc1Cl the solubility was 74 mM (≈ 14.1 mg/mL).
In the case of CC=CCCl, the solubility is reported as 11 mM (≈ 1 mg/mL).
CC(C)(C)NC[C@H](O)COc1ccccc1C1CCCC1 showed a solubility of 24 mM (≈ 7 mg/mL).
Work on CCOP(=S)(OCC)OCCSCC yielded a solubility of 0.232 mM (≈ 0.06 mg/mL).
In the case of Cc1cc(C)c(C)c(C)c1C, the solubility is reported as 0.105 mM (≈ 0.0155 mg/mL).
Compound CC(=O)Oc1c(C(C)(C)C)cc([N+](=O)[O-])c(C)c1[N+](=O)[O-] has a solubility of 0.0338 mM (≈ 0.01 mg/mL).
For Cc1cc(OC(=O)N(C)C)n(-c2ccccc2)n1, the solubility was 8.15 mM (≈ 2 mg/mL).

Same assay, conditions: 20 °C
For Clc1ccc(-c2ccc(Cl)c(Cl)c2)c(Cl)c1, the solubility was 0.000126 mM (≈ 3.68e-05 mg/mL).
Clc1ccc(-c2c(Cl)cc(Cl)c(Cl)c2Cl)cc1Cl gave a solubility of 2.24e-05 mM (≈ 8.07e-06 mg/mL).
NCCS(=O)(=O)O gave a solubility of 645 mM (≈ 80.7 mg/mL).
C[C@@]12C(=O)OC(=O)[C@]1(C)C1CCC2O1 gave a solubility of 0.153 mM (≈ 0.03 mg/mL).
With COC(=O)C(Cl)Cc1ccc(Cl)cc1 (configuration not stated) the solubility was 0.172 mM (≈ 0.04 mg/mL).
CCCCOC(=O)CC showed a solubility of 11.5 mM (≈ 1.5 mg/mL).
CC1CCCC(=O)C1 (configuration not stated) gave a solubility of 13.4 mM (≈ 1.5 mg/mL).
O=C(O)C=Cc1ccco1 showed a solubility of 14.5 mM (≈ 2 mg/mL).
CCSc1nc(NC(C)C)nc(NC(C)C)n1 gave a solubility of 0.0626 mM (≈ 0.016 mg/mL).
In the case of Oc1cccc2cccnc12, the solubility is reported as 3.83 mM (≈ 0.556 mg/mL).
For Clc1ccc(-c2ccc(Cl)c(Cl)c2)cc1, the solubility was 0.000279 mM (≈ 7.19e-05 mg/mL).
CC(CCl)OC(C)CCl (configuration not stated) gave a solubility of 9.94 mM (≈ 1.7 mg/mL).
C[C@H](CCC(=O)NCC(=O)O)[C@H]1CC[C@H]2[C@@H]3[C@H](O)C[C@@H]4C[C@H](O)CC[C@]4(C)[C@H]3C[C@H](O)[C@]12C gave a solubility of 0.00709 mM (≈ 0.0033 mg/mL).
CCc1ccccc1CC gave a solubility of 0.53 mM (≈ 0.0711 mg/mL).
For COCCCNc1nc(NC(C)C)nc(SC)n1, the solubility was 1.18 mM (≈ 0.32 mg/mL).
Compound Clc1ccc2c(c1)Oc1c(Cl)c(Cl)c(Cl)c(Cl)c1O2 has a solubility of 3.37e-07 mM (≈ 1.2e-07 mg/mL).
Work on Clc1c(Cl)c(Cl)c2c(c1Cl)Oc1c(Cl)c(Cl)c(Cl)c(Cl)c1O2 yielded a solubility of 8.7e-10 mM (≈ 4e-10 mg/mL).
Work on COC(=O)c1cccnc1 yielded a solubility of 347 mM (≈ 47.6 mg/mL).
O=c1c(O)c(-c2ccc(O)cc2O)oc2cc(O)cc(O)c12 gave a solubility of 0.827 mM (≈ 0.25 mg/mL).
O=c1ccc2ccccc2[nH]1 gave a solubility of 7.25 mM (≈ 1.05 mg/mL).
Work on O=C(O)CCCCCCCCCCC(=O)O yielded a solubility of 0.174 mM (≈ 0.04 mg/mL).
Work on COc1ccc(C=O)c(C(=O)O)c1OC yielded a solubility of 11.9 mM (≈ 2.5 mg/mL).
For O=c1nc[nH]c2nccnc12, the solubility was 33.8 mM (≈ 5 mg/mL).
CCCC1(CCC)C(=O)NC(=O)NC1=O gave a solubility of 2.83 mM (≈ 0.6 mg/mL).
Compound COc1ccc(C(=O)c2cccc(C)c2)cc1C has a solubility of 0.00832 mM (≈ 0.002 mg/mL).

Same assay, conditions: 21 °C
O=C(O)CCCCCCCCCCCC(=O)O gave a solubility of 6.14 mM (≈ 1.5 mg/mL).
Compound C=C1c2cccc(O)c2C(=O)C2=C(O)[C@]3(O)C(=O)C(C(N)=O)=C(O)[C@@H](N(C)C)[C@@H]3[C@@H](O)[C@H]12 has a solubility of 17.1 mM (≈ 7.55 mg/mL).

Same assay, conditions: 22 °C
In the case of CC(=O)c1ccc(O)cc1, the solubility is reported as 72.7 mM (≈ 9.9 mg/mL).

Same assay, conditions: 23 °C
O=c1[nH]cnc2nc[nH]c12 showed a solubility of 5.14 mM (≈ 0.7 mg/mL).
Compound COP(=O)(OC)OC1=C(Cl)C2C=CCC12 (configuration not stated) has a solubility of 9.97 mM (≈ 2.5 mg/mL).
Compound C=C(C)C1CC=C(C)C(=O)C1 (configuration not stated) has a solubility of 8.67 mM (≈ 1.3 mg/mL).
Nc1nc(N)[nH]c(=O)n1 gave a solubility of 0.59 mM (≈ 0.075 mg/mL).
With O=C(O)[C@@H](CO)c1ccccc1 the solubility was 119 mM (≈ 19.8 mg/mL).

Same assay, conditions: 24 °C
Work on O=NN1CCCCC1 yielded a solubility of 670 mM (≈ 76.5 mg/mL).
Work on O=P(OC(CCl)CCl)(OC(CCl)CCl)OC(CCl)CCl yielded a solubility of 0.0162 mM (≈ 0.007 mg/mL).
CC(CN1c2ccccc2Sc2ccccc21)N(C)C (configuration not stated) showed a solubility of 0.055 mM (≈ 0.0156 mg/mL).
Work on CCN(CC)N=O yielded a solubility of 1040 mM (≈ 106 mg/mL).
CC(C)CC(=O)CC(C)C gave a solubility of 18.6 mM (≈ 2.64 mg/mL).
CC(C)Oc1cc(-n2nc(C(C)(C)C)oc2=O)c(Cl)cc1Cl showed a solubility of 0.00203 mM (≈ 0.0007 mg/mL).

Same assay, conditions: 25 °C
For Cc1ccc2cc3ccccc3cc2c1, the solubility was 0.000111 mM (≈ 2.13e-05 mg/mL).
O=C(O)c1cc(I)cc(I)c1O showed a solubility of 0.493 mM (≈ 0.192 mg/mL).
In the case of CCCCCCCCCCCCCCCCCC, the solubility is reported as 2.36e-05 mM (≈ 6e-06 mg/mL).
C1CCC2CCCCC2C1 (configuration not stated) showed a solubility of 0.00643 mM (≈ 0.000889 mg/mL).
Compound Cc1ccnc(C)c1 has a solubility of 3020 mM (≈ 324 mg/mL).
For O=C(O)COc1ccccc1Cl, the solubility was 6.86 mM (≈ 1.28 mg/mL).
CCCC(=O)CC showed a solubility of 147 mM (≈ 14.7 mg/mL).
Cc1ccc2ccc(C)nc2c1 showed a solubility of 11.4 mM (≈ 1.79 mg/mL).
Compound Cc1c2ccccc2cc2ccccc12 has a solubility of 0.00136 mM (≈ 0.000261 mg/mL).
In the case of Cc1ccc(S(N)(=O)=O)cc1, the solubility is reported as 18.4 mM (≈ 3.16 mg/mL).
C#CCCCCCC#C showed a solubility of 1.04 mM (≈ 0.125 mg/mL).
CCn1cc(C(=O)O)c(=O)c2cnc(N3CCNCC3)nc21 gave a solubility of 1.06 mM (≈ 0.322 mg/mL).
For C=C(C)C, the solubility was 4.69 mM (≈ 0.263 mg/mL).
In the case of C=C(C)c1ccccc1, the solubility is reported as 0.982 mM (≈ 0.116 mg/mL).
With C#CCC the solubility was 53.1 mM (≈ 2.87 mg/mL).
With CC1CCC(C)CC1 (configuration not stated) the solubility was 0.0342 mM (≈ 0.00384 mg/mL).
In the case of CCCCc1c(C)nc(N(C)C)nc1O, the solubility is reported as 5.73 mM (≈ 1.2 mg/mL).
Compound CCCCC(C)CC (configuration not stated) has a solubility of 0.00693 mM (≈ 0.000792 mg/mL).
In the case of O=C(O)c1ccccc1, the solubility is reported as 24.8 mM (≈ 3.03 mg/mL).
O=S(=O)(Cl)c1ccc(I)cc1 gave a solubility of 0.0539 mM (≈ 0.0163 mg/mL).
With CCCCP(=O)(CCCC)CCCC the solubility was 255 mM (≈ 55.7 mg/mL).
For c1ccc2c(c1)CCN2, the solubility was 90.6 mM (≈ 10.8 mg/mL).
Compound CCCCC(C)O (configuration not stated) has a solubility of 134 mM (≈ 13.7 mg/mL).
In the case of O=C1CCCCC1, the solubility is reported as 255 mM (≈ 25 mg/mL).
N[C@@H](Cc1cnc[nH]1)C(=O)O gave a solubility of 294 mM (≈ 45.6 mg/mL).
CCC(CC)CO showed a solubility of 39.1 mM (≈ 4 mg/mL).
CCC#CC(C)C showed a solubility of 1.8 mM (≈ 0.173 mg/mL).
Compound Cc1cccc(C)c1NC(=O)c1cc(S(N)(=O)=O)c(Cl)cc1O has a solubility of 0.163 mM (≈ 0.058 mg/mL).
For CC(C)(C)C(=O)C1C(=O)c2ccccc2C1=O, the solubility was 0.0782 mM (≈ 0.018 mg/mL).
With O=C=O the solubility was 33.5 mM (≈ 1.47 mg/mL).
O=C1C(Cl)=C(Cl)C(=O)C(Cl)=C1Cl gave a solubility of 1.02 mM (≈ 0.25 mg/mL).
CC(=O)OCC(=O)[C@@]1(O)CCC2C3CCC4=CC(=O)CC[C@]4(C)C3[C@@H](O)C[C@@]21C (some centres not stated) gave a solubility of 0.0349 mM (≈ 0.0141 mg/mL).
COc1ccc2c(c1)c(CC(=O)O)c(C)n2C(=O)/C=C/c1ccccc1 showed a solubility of 0.00286 mM (≈ 0.001 mg/mL).
Work on Cc1ccc2cc(C)ccc2c1 yielded a solubility of 0.0128 mM (≈ 0.002 mg/mL).
Compound CC(C)(C)C(=O)OCC(=O)[C@@]1(O)CC[C@H]2[C@@H]3CCC4=CC(=O)C=C[C@]4(C)[C@H]3[C@@H](O)C[C@@]21C has a solubility of 0.0261 mM (≈ 0.0116 mg/mL).
With c1ccc(Cc2ccccc2)cc1 the solubility was 0.0838 mM (≈ 0.0141 mg/mL).
In the case of Cc1ccc(C)nc1, the solubility is reported as 1530 mM (≈ 164 mg/mL).
For c1ccc2c(c1)Cc1c-2ccc2ccccc12, the solubility was 0.00021 mM (≈ 4.54e-05 mg/mL).
With CCCCCCCCCc1ccc(O)cc1 the solubility was 0.0318 mM (≈ 0.007 mg/mL).
Clc1ccc2c(c1)Oc1ccccc1O2 gave a solubility of 0.00146 mM (≈ 0.000319 mg/mL).
With C1CCCNCC1 the solubility was 1710 mM (≈ 170 mg/mL).
Work on Clc1cccc2c1Oc1ccccc1O2 yielded a solubility of 0.00191 mM (≈ 0.000417 mg/mL).
CC=CC(C)O (configuration not stated) showed a solubility of 1040 mM (≈ 89.2 mg/mL).
For O=c1cc[nH]c(=S)[nH]1, the solubility was 5.53 mM (≈ 0.709 mg/mL).
Compound C1=CCCCCC1 has a solubility of 0.686 mM (≈ 0.066 mg/mL).
For ClC(Cl)=C(c1ccc(Cl)cc1)c1ccccc1Cl, the solubility was 0.00044 mM (≈ 0.00014 mg/mL).
Compound Cc1cccc2c1ccc1ccccc12 has a solubility of 0.0014 mM (≈ 0.000269 mg/mL).
C1CCCC1 gave a solubility of 2.22 mM (≈ 0.156 mg/mL).
In the case of O=C1NCCN1c1ncc([N+](=O)[O-])s1, the solubility is reported as 0.607 mM (≈ 0.13 mg/mL).
With CCOc1ccccc1 the solubility was 4.66 mM (≈ 0.569 mg/mL).
Clc1cccc(-c2cccc(Cl)c2)c1 gave a solubility of 0.00159 mM (≈ 0.000355 mg/mL).
CC(C)(N)C(=O)O gave a solubility of 1760 mM (≈ 181 mg/mL).
O=S(=O)(O)CS(=O)(=O)O showed a solubility of 8900 mM (≈ 1570 mg/mL).
For O=C(O)COc1ccc(Cl)c(Cl)c1, the solubility was 2.07 mM (≈ 0.457 mg/mL).
With Fc1ccc(I)cc1 the solubility was 0.749 mM (≈ 0.166 mg/mL).
Nc1ncnc2[nH]cnc12 gave a solubility of 7.62 mM (≈ 1.03 mg/mL).
Compound C=CCCC has a solubility of 2.11 mM (≈ 0.148 mg/mL).
With CC(C)CC(C)(C)C the solubility was 0.0196 mM (≈ 0.00224 mg/mL).
In the case of COP(=O)(Oc1ccccc1)Oc1ccccc1, the solubility is reported as 7.57 mM (≈ 2 mg/mL).
With CC(=O)[C@@]1(C)CC[C@H]2[C@@H]3C=C(C)C4=CC(=O)CC[C@]4(C)[C@H]3CC[C@@]21C the solubility was 0.00534 mM (≈ 0.00182 mg/mL).
For ClCCCBr, the solubility was 14.2 mM (≈ 2.24 mg/mL).

Same assay, conditions: 27 °C
Work on Cc1cc2c3ccccc3ccc2c2ccccc12 yielded a solubility of 0.000268 mM (≈ 6.5e-05 mg/mL).

Same assay, conditions: 28 °C
COc1ccc(C[C@H]2NC[C@H](O)[C@H]2OC(C)=O)cc1 gave a solubility of 24.7 mM (≈ 6.55 mg/mL).

Same assay, conditions: 30 °C
Work on Cc1c(N(C)C)c(=O)n(-c2ccccc2)n1C yielded a solubility of 235 mM (≈ 54.4 mg/mL).
Work on CN1c2ccccc2Sc2ccc(CC(=O)O)cc21 yielded a solubility of 0.114 mM (≈ 0.031 mg/mL).
NCCCCCCCCCCC(=O)O showed a solubility of 4.97 mM (≈ 1 mg/mL).
